Results on 1 compound are retold here after US12029738B2, “Antiproliferative compounds and methods of use thereof” (Celgene Corporation, priority 2017, dated 2024).

In this data set the test system is neutrophil progenitors (bone marrow CD34+ cells from healthy donors). Kind of data set: Ex vivo maturation of myeloid progenitors to adult neutrophils. As to the method:
Methods: Ex vivo cultures of bone marrow (BM) CD34^+ cells from healthy donors (HD) were used to investigate neutrophil-specific ex vivo maturation. In vitro differentiation of neutrophil progenitors was induced by adding stem cell factor (SCF), fins-related tyrosine kinase 3 ligand (Flt3-L), and granulocyte colony stimulating factor (G-CSF) to culture media. Cell differentiation was evaluated by flow cytometry as the percentage of cells in 5 subpopulations: hematopoietic stem cells (HSC, CD34^+/CD33^−/CD11b^−) and Stage I (CD34^+/CD33^+/CD11b^−), Stage II (CD34^−/CD33^+/CD11b^−), Stage III (CD34^−/CD33^+/CD11b^+), and Stage IV (CD34^−/CD33^−/CD11b^+) (from immature to mature), as shown in FIG. 7. The effects of Compound 2 on maturation of neutrophil progenitors were assessed and different dosing schedules were evaluated to gain insight into the schedule dependence of these events.
Longer Daily Compound 2 Exposures. To further characterize the potential impacts of different schedules on arrest of neutrophil progenitor maturation and subsequent recovery, changes in the relative proportions of each of the aforementioned stages of myeloid progenitor […] CD34^+ BM cells derived from healthy donors were exposed to Compound 2 on 3 or 5 consecutive days starting on Day 10 for 6 h (Donors No. 1 and 2) or for 24 h (Donors No. 3 and 4) each day. […]

In the case of `N#Cc1ccc(N2CCN(Cc3ccc(COc4cccc5c4CN([C@H]4CCC(=O)NC4=O)C5=O)cc3)CC2)c(F)c1` [Compound 2, (S)-4-(4-(4-(((2-(2,6-dioxopiperidin-3-yl)-1-oxoisoindolin-4-yl)oxy)methyl)benzyl)piperazin-1-yl)-3-fluorobenzonitrile], the loss of viability result was “no loss of viability was observed”. The “late-stage maturation of neutrophil progenitors” value (1, 10, 100 nM, 2, 4, 6 h exposures for up to 3 consecutive days) is reported as “blocked”.
